Data reported in article PMC5384453, “A multi-functional PEGylated gold(III) compound: potent anti-cancer properties and self-assembly into nanostructures for drug co-delivery” (Chemical Science, 2016).

Tests used:
[1] = test system: NCM460 cells; assay: Time-dependent induction of apoptosis, Caspase-3/7 Green ReadyProbes fluorescence microscopy; type: cell-based, human; settings: NCM460, 2 μM, Caspase-3/7 Green Reagent
Protocol: B from 20.1 to 25 min and returned to initial conditions and equilibrated for 3 minutes.
The flow rate was 0.4 mL/min and the injection volume was 2 µL. The UPLC-QTOF-MS chromatograms of 1, 3, 4 and solvent control in acetonitrile were also recorded for the interpretation of UPLC-QTOF-MS chromatograms of the cell lysate.
Cellular uptake experiments. HCT116, A2780 and A2780adr (2×10 5 cells), and MIHA and NCM460 (3.5×10 5 cells) cells were grown on 6-well plates at 37 °C under an atmosphere of 5% CO2 for 48 h. The culture medium was then removed, washed with PBS solution, and incubated with culture medium containing nanostructures of 1 […]
Au1a (2 µM; with 1 vol% DMSO). At a predetermined time, the culture medium was removed and washed with PBS solution for three times. […] An aliquot of the cell suspension was subjected to Bio-rad protein assay with a microtitre plate reader at the absorbance at 595 nm, using bovine serum albumin as the protein standard. […] The solution mixture was heated at 65 °C with shaking overnight, and the gold content was determined by ICP-MS. […]
then removed and washed with PBS solution. The cells were then incubated with culture medium containing nanostructures of 1 (2 µM) and CellEvent Caspase-3/7 Green ReadyProbes Reagent (30 µL), or Au1a (2 µM; with 1 vol% DMSO) and CellEvent Caspase-3/7 Green ReadyProbes Reagent (30 µL) at 37 °C under an atmosphere of 5% CO2. […]

[2] = Zeta potential measurement of nanostructures in PBS; type: physicochemical
Description: On the other hand, the almost neutral zeta potentials of the nanostructures of 1 and 2 validated the presence of PEG pendant in the shell of the nanostructures. The identity of gold species in the core of the nanostructures was supported by the good contrast of the core in the TEM images (Fig. 1c and S3a ^†) and energy-dispersive X-ray (EDX) spectra (Fig. 1f). […]
(MIHA), human normal liver cells (L02) and human normal gliocyte cells (CHEM-5) were maintained in Dulbecco’s modified Eagle’s medium with 10 vol% fetal bovine serum, ʟ-glutamine (2 mM) and penicillin/streptomycin (100 U/mL). […]
TOF/TOF™ Analyzer using α-cyano-4-hydroxycinnamic acid with sodium trifluoroacetate as the matrix. […]
Premier quadrupole time-of-flight tandem mass spectrometer. […]
Ultra performance […]
liquid chromatography (UPLC) measurements were performed on a Waters
ACQUITY UPLC H-Class System equipped with a photodiode array for detection.
Elemental analyses were performed on the Carlo Erba 1106 elemental analyzer at the Institute of Chemistry, Chinese Academy of Sciences, Beijing, China. […]
Dynamic light scattering (DLS) and zeta potential measurements were performed

[3] = test system: HCT116 xenografts; assay: In vivo inhibition of tumor growth in nude mice bearing HCT116 xenograft; settings: for reduction of tumor volume / reduction of tumor weight: n = 8
Description: The anti-tumor experiments using mice were approved by the animal ethics committees of Jinan University and The University of Hong Kong.
Significant pulmonary hemorrhage in the alveoli and a thickening of alveolar walls were found. Also, apoptotic hepatocytes and swollen renal epithelial cells were found, leading to subsequent shrinkage of kidney tubules. […] The lower systemic toxicity of 1 can be explained by the lower accumulation of 1 in the organs of mice treated at its effective dosage, as compared to that of 3 and Au1a (Fig. S23 ^†). […] This can be attributable to the nanostructures of 1, which may lead to in vivo tumor accumulation by the EPR effect.[55] […]
atmosphere of 5% CO2. […]
right fore of BALB/c nude mice. When the tumor volume reached 70 mm3 after […]
every 2 days for 24 days. The control group received equal volume of PBS only.
During the treatment period, the tumor volume and body weight of the nude mice were measured per two days. The tumor volume was calculated by the equation:
Volume (mm3) = l×w2/2, where l and w were the length and width of the tumor. At the end of the treatment, the nude mice were sacrificed and the tumor weight was […]
H&E staining and immunohistochemical (IHC) analysis of mice tissues. For histological and immunohistochemical analysis, the tissues were fixed with 3.7% formaldehyde, embedded with paraffin and sectioned. Subsequently, the tissues were stained with hematoxylin and eosin for histological observation under an optical microscope (magnification: 10×). The expression of p53, Ki67, VEGFR2 and TUNEL was determined by IHC methods as reported previously. S7
Hematological analysis of nude mice bearing HCT116 xenograft. The blood samples of mice without bearing HCT116 xenograft and xenograft-bearing mice treated with 1, 3 and PBS control were collected. The plasma was obtained by centrifuging the blood sample with speed at 3000 rpm. The plasma was then subjected to hematological analysis to determine biochemical indexes of alanine aminotransferase (ALT), asparatate aminotransferase (AST), globulin (GLB), blood urea nitrogen (BUN), uric acid (UA), creatinine (CREA), lactate dehydrogenase (LDH) and creatine kinase (CK) in blood of the mice. […]

[4] = 4 mg kg^–1, intravenous injection every two days for 24 days
[5] = 2 mg kg^–1, intravenous injection every two days for 24 days

| Molecule | incubation time at which induction of apoptosis was apparent [1] | Zeta potential [2] | reduction of tumor volume [3, 4] [%] | reduction of tumor weight [3, 4] [%] | reduction of tumor volume [3, 5] [%] | reduction of tumor weight [3, 5] [%] | nuclear atypia and mitosis in tumor sections (immunohistochemical analysis) ([3]; 4 mg kg^–1 i.v., 24 days) |
| --- | --- | --- | --- | --- | --- | --- | --- |
| C1=Cc2nc1c(-c1ccccc1)c1ccc([n-]1)c(-c1ccccc1)c1nc(c(-c3ccccc3)c3ccc([n-]3)c2-c2ccccc2)C=C1.[Au+3].[Cl-] [Au1a, [Au(TPP)]Cl, reference compound] | 20 h | – | – | – | – | – | – |
| [Au(TPP–CONH–PEG5000–OCH3)]Cl [Compound 2] | – | –0.7 ± 4.2 mV | – | – | – | – | – |
| COC(=O)c1ccc(C2=C3C=CC(=N3)C(c3ccccc3)=c3ccc4[n]3[Au+][n]3c(ccc32)C(c2ccccc2)=C2C=CC(=N2)C=4c2ccccc2)cc1.[Cl-] [Compound 3, [Au(TPP–COOCH3)]^+] | – | – | 56 | 49 | – | – | – |
| [Au(TPP–COO–PEG5000–OCH3)]Cl [Compound 1] | no significant apoptosis | –0.1 ± 1.6 mV | 58 | 53 | 41 | 35 | Effective elimination of nuclear atypia and mitosis were observed |
